Reference: BindingDB's records for doi:10.1021/jm00391a020 (1987)

Experiment: Kinetic constant for galactosyltransferase inhibition was determined

Ki [µM]	Structure (SMILES)
128	O=c1ccn([C@@H]2O[C@H](COP(=O)(O)OP(=O)(O)OP(=O)(O)O)[C@@H](O)[C@H]2O)c(=O)[nH]1 [uridine 5'-(tetrahydrogen triphosphate)]
165	O=c1ccn(C2O[C@H](COP(=O)(O)OP(=O)(O)C3O[C@H](CO)[C@@H](O)[C@H](O)[C@H]3O)[C@@H](O)[C@H]2O)c(=O)[nH]1 (some centres not stated)
